Measurements: PubChem BioAssay (NCI)
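Protocol summary: plate cells (96-well), add compound at 5 concentrations, incubate 48 h, interpolate endpoints linearly. TGI is the concentration that stops growth completely.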

Experiments:
Test in all cases: DTP human tumour cell line panel, 48 h
RPMI-8226 leukemia = system: RPMI-8226 leukemia
NCI/ADR-RES ovarian = system: NCI/ADR-RES ovarian
HOP-62 NSCLC = system: HOP-62 NSCLC
SF-268 CNS = system: SF-268 CNS
RXF-631 renal = system: RXF-631 renal
UO-31 renal = system: UO-31 renal
NCI-H23 lung = system: NCI-H23 lung
HOP-18 NSCLC = system: HOP-18 NSCLC
SN12C renal = system: SN12C renal
SK-OV-3 ovarian = system: SK-OV-3 ovarian
NCI-H460 lung = system: NCI-H460 lung
ACHN renal = system: ACHN renal
UACC-257 melanoma = system: UACC-257 melanoma
K-562 leukemia = system: K-562 leukemia
MALME-3M melanoma = system: MALME-3M melanoma
SNB-78 CNS = system: SNB-78 CNS
DU-145 prostate = system: DU-145 prostate
OVCAR-5 ovarian = system: OVCAR-5 ovarian
SF-539 CNS = system: SF-539 CNS
DLD-1 colon = system: DLD-1 colon
TK-10 renal = system: TK-10 renal
OVCAR-8 ovarian = system: OVCAR-8 ovarian
HCC-2998 colon = system: HCC-2998 colon
EKVX NSCLC = system: EKVX NSCLC
DMS 114 small cell lung = system: DMS 114 small cell lung
RXF 393 renal = system: RXF 393 renal
COLO 205 colon = system: COLO 205 colon
SR leukemia = system: SR leukemia
IGROV1 ovarian = system: IGROV1 ovarian
OVCAR-4 ovarian = system: OVCAR-4 ovarian
LXFL 529 NSCLC = system: LXFL 529 NSCLC
SK-MEL-5 melanoma = system: SK-MEL-5 melanoma
HCT-15 colon = system: HCT-15 colon
SNB-19 CNS = system: SNB-19 CNS
BT-549 breast = system: BT-549 breast
A549 NSCLC = system: A549 NSCLC
SW-620 colon = system: SW-620 colon
SF-295 CNS = system: SF-295 CNS
NCI-H226 lung = system: NCI-H226 lung
MCF7 breast = system: MCF7 breast
XF 498 CNS = system: XF 498 CNS
HOP-92 NSCLC = system: HOP-92 NSCLC
786-0 renal = system: 786-0 renal
SNB-75 CNS = system: SNB-75 CNS
M14 melanoma = system: M14 melanoma
SK-MEL-2 melanoma = system: SK-MEL-2 melanoma
NCI-H522 lung = system: NCI-H522 lung
OVCAR-3 ovarian = system: OVCAR-3 ovarian
HS 578T breast = system: HS 578T breast
M19-MEL melanoma = system: M19-MEL melanoma
HL-60(TB) leukemia = system: HL-60(TB) leukemia
HT29 colon = system: HT29 colon
KM12 colon = system: KM12 colon
LOX IMVI melanoma = system: LOX IMVI melanoma
DMS 273 small cell lung = system: DMS 273 small cell lung
HCT-116 colon = system: HCT-116 colon
CAKI-1 renal = system: CAKI-1 renal
KM20L2 colon = system: KM20L2 colon
A498 renal = system: A498 renal
MDA-N = system: MDA-N
CCRF-CEM leukemia = system: CCRF-CEM leukemia
MDA-MB-435 = system: MDA-MB-435
SK-MEL-28 melanoma = system: SK-MEL-28 melanoma
T-47D breast = system: T-47D breast
MOLT-4 leukemia = system: MOLT-4 leukemia
PC-3 prostate = system: PC-3 prostate
U251 CNS = system: U251 CNS
UACC-62 melanoma = system: UACC-62 melanoma
MDA-MB-231 breast = system: MDA-MB-231 breast

CN(C)CC1CCCCCCCCCC(CN(C)C)C1=O (stereo not drawn)
TGI (RPMI-8226 leukemia): > 100 µM | TGI (NCI/ADR-RES ovarian): 52.1 µM | TGI (HOP-62 NSCLC): > 62.4 µM | TGI (SF-268 CNS): > 53.9 µM | TGI (RXF-631 renal): > 100 µM | TGI (UO-31 renal): > 53.3 µM | TGI (NCI-H23 lung): > 50.5 µM | TGI (HOP-18 NSCLC): > 100 µM | TGI (SN12C renal): > 53.5 µM | TGI (SK-OV-3 ovarian): > 45.6 µM | TGI (NCI-H460 lung): > 57 µM | TGI (ACHN renal): > 46.3 µM | TGI (UACC-257 melanoma): > 48.1 µM | TGI (K-562 leukemia): > 38.5 µM | TGI (MALME-3M melanoma): > 65.4 µM | TGI (SNB-78 CNS): > 100 µM | TGI (DU-145 prostate): 31.1 µM | TGI (OVCAR-5 ovarian): > 63.6 µM | TGI (SF-539 CNS): > 47 µM | TGI (DLD-1 colon): > 100 µM | TGI (TK-10 renal): > 53.7 µM | TGI (OVCAR-8 ovarian): > 54.8 µM | TGI (HCC-2998 colon): > 100 µM | TGI (EKVX NSCLC): > 54.2 µM | TGI (DMS 114 small cell lung): > 100 µM | TGI (RXF 393 renal): > 42.4 µM | TGI (COLO 205 colon): > 100 µM | TGI (SR leukemia): > 100 µM | TGI (IGROV1 ovarian): > 55.8 µM | TGI (OVCAR-4 ovarian): > 41.2 µM | TGI (LXFL 529 NSCLC): > 100 µM | TGI (SK-MEL-5 melanoma): 41.2 µM | TGI (HCT-15 colon): > 61.2 µM | TGI (SNB-19 CNS): > 55.6 µM | TGI (BT-549 breast): 18.7 µM | TGI (A549 NSCLC): > 51.5 µM | TGI (SW-620 colon): > 45.5 µM | TGI (SF-295 CNS): > 59.7 µM | TGI (NCI-H226 lung): > 60.3 µM | TGI (MCF7 breast): 24.3 µM | TGI (XF 498 CNS): > 100 µM | TGI (HOP-92 NSCLC): > 48.4 µM | TGI (786-0 renal): > 40.6 µM | TGI (SNB-75 CNS): > 44.9 µM | TGI (M14 melanoma): > 49.1 µM | TGI (SK-MEL-2 melanoma): > 67.4 µM | TGI (NCI-H522 lung): 10.5 µM | TGI (OVCAR-3 ovarian): > 40.1 µM | TGI (HS 578T breast): 24.1 µM | TGI (M19-MEL melanoma): > 100 µM | TGI (HL-60(TB) leukemia): > 100 µM | TGI (HT29 colon): > 43.8 µM | TGI (KM12 colon): > 39.4 µM | TGI (LOX IMVI melanoma): > 37.2 µM | TGI (DMS 273 small cell lung): > 100 µM | TGI (HCT-116 colon): > 64.5 µM | TGI (CAKI-1 renal): > 50 µM | TGI (KM20L2 colon): > 100 µM | TGI (A498 renal): > 46.2 µM | TGI (MDA-N): 30.9 µM | TGI (CCRF-CEM leukemia): > 26.4 µM | TGI (MDA-MB-435): 19.7 µM | TGI (SK-MEL-28 melanoma): > 54.4 µM | TGI (T-47D breast): 53 µM | TGI (MOLT-4 leukemia): > 25.7 µM | TGI (PC-3 prostate): 19.4 µM | TGI (U251 CNS): > 54.5 µM | TGI (UACC-62 melanoma): > 44.1 µM | TGI (MDA-MB-231 breast): 84.6 µM

CCCCCCCCCCCCCCCC(=O)OCC1OC(OC)C2NP(=O)(N(CCCl)CCCl)OC1C2O (stereo not drawn)
TGI (RPMI-8226 leukemia): 15.9 µM | TGI (HOP-62 NSCLC): 10.8 µM | TGI (SF-268 CNS): 14.8 µM | TGI (RXF-631 renal): 25.7 µM | TGI (UO-31 renal): 35.1 µM | TGI (NCI-H23 lung): 6.76 µM | TGI (HOP-18 NSCLC): 33.6 µM | TGI (SN12C renal): 24.8 µM | TGI (SK-OV-3 ovarian): 56.1 µM | TGI (NCI-H460 lung): 14.5 µM | TGI (ACHN renal): 40.6 µM | TGI (UACC-257 melanoma): 42.9 µM | TGI (K-562 leukemia): 24 µM | TGI (MALME-3M melanoma): 34.1 µM | TGI (SNB-78 CNS): 19.2 µM | TGI (DU-145 prostate): 54.8 µM | TGI (OVCAR-5 ovarian): 59.2 µM | TGI (SF-539 CNS): 7.29 µM | TGI (DLD-1 colon): 14.5 µM | TGI (TK-10 renal): 31.7 µM | TGI (OVCAR-8 ovarian): 13.5 µM | TGI (HCC-2998 colon): 9.46 µM | TGI (EKVX NSCLC): 47.4 µM | TGI (DMS 114 small cell lung): 9.31 µM | TGI (RXF 393 renal): 3.99 µM | TGI (COLO 205 colon): 13.5 µM | TGI (SR leukemia): 1.78 µM | TGI (IGROV1 ovarian): > 54.9 µM | TGI (OVCAR-4 ovarian): 38 µM | TGI (LXFL 529 NSCLC): 8.06 µM | TGI (SK-MEL-5 melanoma): 38 µM | TGI (HCT-15 colon): 14.2 µM | TGI (SNB-19 CNS): 65.6 µM | TGI (BT-549 breast): 5.96 µM | TGI (A549 NSCLC): 39.9 µM | TGI (SW-620 colon): 17.4 µM | TGI (SF-295 CNS): > 41.8 µM | TGI (NCI-H226 lung): 32.2 µM | TGI (MCF7 breast): 20.5 µM | TGI (XF 498 CNS): 7.83 µM | TGI (HOP-92 NSCLC): 5.51 µM | TGI (786-0 renal): 3.85 µM | TGI (SNB-75 CNS): 15.2 µM | TGI (M14 melanoma): 18.1 µM | TGI (SK-MEL-2 melanoma): 24.3 µM | TGI (NCI-H522 lung): 3.42 µM | TGI (OVCAR-3 ovarian): 10.7 µM | TGI (M19-MEL melanoma): > 75.3 µM | TGI (HL-60(TB) leukemia): 4.48 µM | TGI (HT29 colon): > 66.8 µM | TGI (KM12 colon): 41.9 µM | TGI (LOX IMVI melanoma): 6.58 µM | TGI (DMS 273 small cell lung): 5.09 µM | TGI (HCT-116 colon): 11.5 µM | TGI (CAKI-1 renal): 10.5 µM | TGI (KM20L2 colon): 46.7 µM | TGI (A498 renal): 34.7 µM | TGI (CCRF-CEM leukemia): 9.26 µM | TGI (MDA-MB-435): 21.7 µM | TGI (SK-MEL-28 melanoma): 61.1 µM | TGI (MOLT-4 leukemia): 0.968 µM | TGI (PC-3 prostate): 18.9 µM | TGI (U251 CNS): > 19.5 µM | TGI (UACC-62 melanoma): 8.71 µM
